From patent US20050089577A1, “Liquid matrix undergoing phase transfer in vivo and liquid oral preparations” (priority 2002, published 2005)
Where “and” joins values, the source holds several entries; their conditions need not be identical. Identical values can stand only once. Counter-ions that a name gives are not always drawn.

Legend:
[1] = tested on: acetic acid ulcer; assay: Therapeutic effect in rat acetic acid chronic ulcer model; format: in vivo, Wister male rats; conditions: 0.5 ml daily once for 2 weeks, eighth week; for Average ulcer coefficient: 3 rats; for Ulcer coefficient: individual rats
From the text: That is, the rats were anesthetized under Nembutal and the belly was cut along the midline to remove the stomach. Then, a cylinder of […] in diameter charged with absorbent cotton impregnated sufficiently with 100% acetic acid was pressed against the border between the stomach and the pyloric region for about 30 seconds, and the acetic acid adhering to the serous membrane was wiped off with a germ-free gauze, and the belly was sutured. After 6 weeks, one rat was picked up as the control at random from the untreated group, killed and dissected to confirm ulcer formation. […] In the seventh and eight weeks, one untreated rat selected at random was killed and the belly was opened to reconfirm formation of stomach ulcer. Each rat was killed in the eight week and the area of the ulcer was measured, and the ulcer coefficient was determined according to a method of Okabe et al. (Okabe S, Roth […] method for experimental penetrating gastric and duodenal ulcers in rats. Observation on normal healing. Amer J Dig Dis 16: 277-284, 1971).

[2] = tested on: indomethacin ulcer; assay: Therapeutic effect in indomethacin ulcer rat model; format: in vivo, Wister male rats; set-up: key: no bleeding was expressed as negative (−); trace bleeding was given (±); dotted bleeding (+); broad bleeding (++); conditions: individual rats; given 3 hours after indomethacin 20 mg/kg; judged after 24 hours; PGE1 3.3 μg/kg
Procedure: 3 hours after administration of indomethacin, prostaglandin (PGE1) liquid preparation No. 41 (containing alprostadil alfadex as the medicine), PGE1 solution dissolved in purified water in a dose of 3.3 μg/kg in weight as a positive control, the liquid matrix only was administered as a negative control, and purified water only for confirming formation of ulcer to the untreated group, respectively, was administered. After 1 hour, the rats were given feed. The untreated group after 3 hours from administration of indomethacin and the other groups after 24 hours were killed, and dissected to judge ulcer and bleeding in the stomach.
Indomethacin ulcer in the fasted rats is different from that in humans, and develops in the stomach without generating in the pyloric vestibule. Therefore, judgment was made on the basis of bleeding. That is, no bleeding was expressed as negative (−), trace bleeding was given (±), dotted bleeding (+), and broad bleeding (++).

[3] = rat, in vivo, 20 mg/kg
Procedure: These rats were fasted for 24 hours, and then indomethacin (IND) suspended in 1% carboxymethyl cellulose (CMS) solution was administered in a dose of 20 mg/kg to the rats via an oral probe for rat into the stomach to induce indomethacin ulcer.

| Structure (SMILES) | Average ulcer coefficient [1] | Ulcer coefficient [1] | further results |
| --- | --- | --- | --- |
| NC[C@H]1CC[C@H](C(=O)Oc2ccc(CCC(=O)O)cc2)CC1 [Cetraxate HCl solution, cetraxate hydrochloride] | 2.33 |  | Ulcer coefficient ([1]; hydrochloride): 2 (2 for 11 to 20 mm^2) (2×) and 3 (3 for 21 to 30 mm^2) |
| CN/C(=N/CCSCc1nc[nH]c1C)NC#N [Cimetidine solution, cimetidine] | 2.67 | 3 (3 for 21 to 30 mm^2) (2×) and 2 (2 for 11 to 20 mm^2) |  |
| CCCCC[C@H](O)/C=C/[C@H]1[C@H](O)CC(=O)[C@@H]1CCCCCCC(=O)O [PEG1 solution, prostaglandin (PGE1)] |  |  | Judgment of bleeding in the stomach [2]: ± (3×) and + and − |
| CC(=O)CC/C=C(\C)CC/C=C(\C)CC/C=C(\C)CCC=C(C)C [Teprenone solution, teprenone] | 2.33 | 3 (3 for 21 to 30 mm^2) and 2 (2 for 11 to 20 mm^2) (2×) |  |
| COc1ccc2c(c1)c(CC(=O)O)c(C)n2C(=O)c1ccc(Cl)cc1 [indomethacin] |  |  | Time at which blood concentration reached the maximum ([3]; male, Wister): 3 h; Finding in the stomach [3]: erosive bleeding was observed in the stomach |
